Each structure is given as a SMILES string.

In experiment [1] the target is Mitogen-activated protein kinase 8 (Homo sapiens, UniProt P45983). As to the kind of experiment: Selectivity interaction (LanthaScreen Eu Kinase Binding Assay) EUB0001632a MAPK8. To be noted: at 10 µM. For orientation: Time-resolved FRET reads energy transfer from a long-lived donor to a nearby acceptor.
Experiment [2] concerns the target Tyrosine-protein kinase JAK2 (Homo sapiens, UniProt O60674). As to the kind of experiment: Selectivity interaction (SelectScreen profiling (Invitrogen)) EUB0000607a JAK2. To be noted: at 2 µM.
For experiment [3], the target named is Mitogen-activated protein kinase 6 (Homo sapiens) (UniProt Q16659). As to the kind of experiment: Selectivity interaction (KinomeScan (DiscoverX)) EUB0000666a MAPK6. To be noted: at 10 µM.
The target of experiment [4] is Cyclin-dependent kinase 16 (Homo sapiens) (UniProt Q00536). As to the kind of experiment: Selectivity interaction (KinomeScan (DiscoverX)) EUB0000229b CDK16. To be noted: at 10 µM.
Experiment [5] addresses Cyclin-dependent kinase 13 (Homo sapiens, UniProt Q14004). As to the kind of experiment: Selectivity interaction (KinomeScan (DiscoverX)) EUB0001079a CDK13. The following applies: at 1 µM.
For experiment [6], the target named is T1, Tyrosine-protein kinase Tec (Homo sapiens) (UniProt P42680).
T1 sequence (whole entry): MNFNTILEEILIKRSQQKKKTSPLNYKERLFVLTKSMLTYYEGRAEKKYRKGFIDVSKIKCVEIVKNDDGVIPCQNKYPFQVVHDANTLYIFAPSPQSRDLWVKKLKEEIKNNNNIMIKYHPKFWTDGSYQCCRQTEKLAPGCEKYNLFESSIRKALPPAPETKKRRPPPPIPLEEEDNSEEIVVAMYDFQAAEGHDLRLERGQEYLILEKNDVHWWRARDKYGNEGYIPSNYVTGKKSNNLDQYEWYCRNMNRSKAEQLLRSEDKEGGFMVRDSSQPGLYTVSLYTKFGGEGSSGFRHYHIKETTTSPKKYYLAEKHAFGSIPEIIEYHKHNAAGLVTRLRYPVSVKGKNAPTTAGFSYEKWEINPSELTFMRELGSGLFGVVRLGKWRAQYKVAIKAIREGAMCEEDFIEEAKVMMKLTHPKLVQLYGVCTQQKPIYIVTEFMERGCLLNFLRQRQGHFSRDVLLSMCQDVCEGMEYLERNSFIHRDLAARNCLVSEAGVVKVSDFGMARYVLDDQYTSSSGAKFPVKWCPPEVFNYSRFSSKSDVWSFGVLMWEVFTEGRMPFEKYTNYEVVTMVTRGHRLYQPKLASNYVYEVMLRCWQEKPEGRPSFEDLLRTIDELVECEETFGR
As to the kind of experiment: Selectivity interaction (KinomeScan (DiscoverX)) EUB0001079a TEC. To be noted: at 1 µM.

Experiment [7] addresses T2, 3-phosphoinositide-dependent protein kinase 1 (Homo sapiens) (UniProt O15530).
T2 sequence (whole entry): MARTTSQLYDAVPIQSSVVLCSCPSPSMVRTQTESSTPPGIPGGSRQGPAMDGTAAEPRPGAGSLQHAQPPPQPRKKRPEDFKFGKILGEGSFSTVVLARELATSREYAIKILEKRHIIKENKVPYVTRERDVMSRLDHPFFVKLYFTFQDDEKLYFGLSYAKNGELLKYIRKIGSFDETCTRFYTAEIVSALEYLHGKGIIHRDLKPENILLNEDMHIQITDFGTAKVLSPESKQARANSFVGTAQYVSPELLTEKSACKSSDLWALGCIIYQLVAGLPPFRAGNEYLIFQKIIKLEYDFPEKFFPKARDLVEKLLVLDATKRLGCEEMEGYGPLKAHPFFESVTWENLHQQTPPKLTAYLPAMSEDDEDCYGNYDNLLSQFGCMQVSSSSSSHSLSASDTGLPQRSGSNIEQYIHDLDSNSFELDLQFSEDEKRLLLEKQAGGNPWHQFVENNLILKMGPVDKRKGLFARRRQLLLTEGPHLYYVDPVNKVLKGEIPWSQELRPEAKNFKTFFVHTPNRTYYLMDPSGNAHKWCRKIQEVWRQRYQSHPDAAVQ
As to the kind of experiment: Selectivity interaction (KinomeScan (DiscoverX)) EUB0001619a PDPK1. To be noted: at 1 µM.

For experiment [8], the target named is Tyrosine-protein kinase ABL1 (Homo sapiens, UniProt P00519). As to the kind of experiment: Selectivity interaction (ActivX KiNativ screen (kinase selectivity in THP-1 cell lysates)) EUB0000639a ABL1. Format: subcellular. To be noted: lysate, at 0.2 µM.
Experiment [9] addresses Calcium/calmodulin-dependent protein kinase kinase 2 (Homo sapiens) (UniProt Q96RR4). As to the kind of experiment: Selectivity interaction (ActivX KiNativ screen (kinase selectivity in THP-1 cell lysates)) EUB0000639a CAMKK2. The class given is subcellular. The following applies: lysate, at 0.01 µM.
The target of experiment [10] is Casein kinase I isoform epsilon (Homo sapiens, UniProt P49674). As to the kind of experiment: Selectivity interaction (ActivX KiNativ screen (kinase selectivity in THP-1 cell lysates)) EUB0000639a CSNK1E. The class given is subcellular. To be noted: lysate.
Experiment [11] has as its target Serine/threonine-protein kinase tousled-like 2 (Homo sapiens) (UniProt Q86UE8). As to the kind of experiment: Selectivity interaction (ActivX KiNativ screen (kinase selectivity in THP-1 cell lysates)) EUB0000639a TLK2. The class given is subcellular. To be noted: lysate, at 0.04 µM.
Experiment [12] has as its target Ribosomal protein S6 kinase alpha-1 (Homo sapiens, UniProt Q15418). The following applies: at 10 µM.
In experiment [13] the target is T3, Tyrosine-protein kinase TXK (Homo sapiens) (UniProt P42681).
T3 sequence (whole entry): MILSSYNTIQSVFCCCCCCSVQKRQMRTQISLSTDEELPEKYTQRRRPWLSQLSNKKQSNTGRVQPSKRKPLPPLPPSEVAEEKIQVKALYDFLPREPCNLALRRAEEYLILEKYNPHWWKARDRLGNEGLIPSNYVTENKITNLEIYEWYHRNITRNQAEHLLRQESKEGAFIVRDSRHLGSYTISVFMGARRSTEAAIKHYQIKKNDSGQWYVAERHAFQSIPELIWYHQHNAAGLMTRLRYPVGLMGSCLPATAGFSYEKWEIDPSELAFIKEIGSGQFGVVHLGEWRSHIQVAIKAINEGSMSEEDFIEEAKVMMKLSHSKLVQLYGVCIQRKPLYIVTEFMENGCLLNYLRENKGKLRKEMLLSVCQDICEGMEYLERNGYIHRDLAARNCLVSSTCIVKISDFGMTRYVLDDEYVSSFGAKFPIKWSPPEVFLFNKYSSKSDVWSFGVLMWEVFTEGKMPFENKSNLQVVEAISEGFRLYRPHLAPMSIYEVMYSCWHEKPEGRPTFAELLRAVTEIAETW
The following applies: at 10 µM.

The target in experiment [14] is Mitogen-activated protein kinase 6 (Homo sapiens) (UniProt Q16659). As to the kind of experiment: Selectivity interaction (KinomeScan (DiscoverX)) EUB0000695a MAPK6. To be noted: at 100 nM.
Experiment [15] deals with Mitogen-activated protein kinase kinase kinase kinase 1 (Homo sapiens) (UniProt Q92918). As to the kind of experiment: Selectivity interaction (KinomeScan (DiscoverX)) EUB0000092b MAP4K1. The following applies: at 10 µM.
Experiment [16] deals with Tyrosine-protein kinase FRK (Homo sapiens) (UniProt P42685). As to the kind of experiment: Selectivity interaction (KinomeScan (DiscoverX)) EUB0000045b FRK.
Experiment [17] addresses Serine/threonine-protein kinase PAK 3 (Homo sapiens) (UniProt O75914). As to the kind of experiment: Selectivity interaction (KinomeScan (DiscoverX)) EUB0000618a PAK3. The following applies: at 10 µM.

Casein kinase I isoform epsilon, sequence (P49674 whole entry, looked up, canonical isoform): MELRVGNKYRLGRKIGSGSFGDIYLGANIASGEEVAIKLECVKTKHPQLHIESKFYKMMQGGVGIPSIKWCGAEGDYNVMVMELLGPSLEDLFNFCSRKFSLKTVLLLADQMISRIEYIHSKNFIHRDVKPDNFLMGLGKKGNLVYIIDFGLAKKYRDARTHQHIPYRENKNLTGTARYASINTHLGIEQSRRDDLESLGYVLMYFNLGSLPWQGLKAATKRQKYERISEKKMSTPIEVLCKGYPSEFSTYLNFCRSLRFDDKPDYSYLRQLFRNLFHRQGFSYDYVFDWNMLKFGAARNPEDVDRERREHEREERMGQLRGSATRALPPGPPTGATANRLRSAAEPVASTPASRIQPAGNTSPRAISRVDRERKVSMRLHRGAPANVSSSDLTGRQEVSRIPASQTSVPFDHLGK
Tyrosine-protein kinase FRK (Homo sapiens), sequence (P42685 whole entry): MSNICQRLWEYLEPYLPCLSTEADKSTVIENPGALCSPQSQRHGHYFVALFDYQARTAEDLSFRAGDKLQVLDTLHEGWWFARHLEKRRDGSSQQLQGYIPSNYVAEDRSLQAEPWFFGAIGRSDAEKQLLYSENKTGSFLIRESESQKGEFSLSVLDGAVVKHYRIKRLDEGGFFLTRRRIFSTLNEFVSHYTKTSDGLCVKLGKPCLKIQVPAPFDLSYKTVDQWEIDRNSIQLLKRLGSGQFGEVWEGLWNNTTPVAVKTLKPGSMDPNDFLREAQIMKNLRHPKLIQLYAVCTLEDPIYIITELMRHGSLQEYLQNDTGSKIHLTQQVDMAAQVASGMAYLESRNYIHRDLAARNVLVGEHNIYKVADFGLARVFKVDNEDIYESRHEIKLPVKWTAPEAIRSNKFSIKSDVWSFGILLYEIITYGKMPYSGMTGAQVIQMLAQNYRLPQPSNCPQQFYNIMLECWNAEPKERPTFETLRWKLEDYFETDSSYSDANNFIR
Mitogen-activated protein kinase 6 (Homo sapiens), sequence (Q16659 whole entry): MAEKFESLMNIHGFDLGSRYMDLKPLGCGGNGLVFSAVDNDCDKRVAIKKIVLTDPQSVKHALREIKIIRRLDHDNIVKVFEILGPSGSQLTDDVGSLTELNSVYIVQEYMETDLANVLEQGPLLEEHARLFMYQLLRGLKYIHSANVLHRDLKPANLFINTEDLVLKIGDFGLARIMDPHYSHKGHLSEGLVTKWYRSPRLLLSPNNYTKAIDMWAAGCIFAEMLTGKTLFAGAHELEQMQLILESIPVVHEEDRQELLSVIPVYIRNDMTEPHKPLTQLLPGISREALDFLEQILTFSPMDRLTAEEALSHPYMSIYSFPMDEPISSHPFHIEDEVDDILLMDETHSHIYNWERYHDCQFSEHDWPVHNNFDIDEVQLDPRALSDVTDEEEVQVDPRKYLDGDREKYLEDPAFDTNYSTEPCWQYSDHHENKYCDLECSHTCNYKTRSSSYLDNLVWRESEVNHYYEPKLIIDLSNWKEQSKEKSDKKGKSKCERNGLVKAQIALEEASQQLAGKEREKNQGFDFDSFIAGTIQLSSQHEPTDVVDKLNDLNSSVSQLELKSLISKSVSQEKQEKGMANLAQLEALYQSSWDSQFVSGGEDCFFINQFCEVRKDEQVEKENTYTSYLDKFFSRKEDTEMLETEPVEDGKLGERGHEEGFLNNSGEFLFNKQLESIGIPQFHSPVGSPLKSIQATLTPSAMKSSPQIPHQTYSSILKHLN
Ribosomal protein S6 kinase alpha-1, sequence (Q15418 whole entry): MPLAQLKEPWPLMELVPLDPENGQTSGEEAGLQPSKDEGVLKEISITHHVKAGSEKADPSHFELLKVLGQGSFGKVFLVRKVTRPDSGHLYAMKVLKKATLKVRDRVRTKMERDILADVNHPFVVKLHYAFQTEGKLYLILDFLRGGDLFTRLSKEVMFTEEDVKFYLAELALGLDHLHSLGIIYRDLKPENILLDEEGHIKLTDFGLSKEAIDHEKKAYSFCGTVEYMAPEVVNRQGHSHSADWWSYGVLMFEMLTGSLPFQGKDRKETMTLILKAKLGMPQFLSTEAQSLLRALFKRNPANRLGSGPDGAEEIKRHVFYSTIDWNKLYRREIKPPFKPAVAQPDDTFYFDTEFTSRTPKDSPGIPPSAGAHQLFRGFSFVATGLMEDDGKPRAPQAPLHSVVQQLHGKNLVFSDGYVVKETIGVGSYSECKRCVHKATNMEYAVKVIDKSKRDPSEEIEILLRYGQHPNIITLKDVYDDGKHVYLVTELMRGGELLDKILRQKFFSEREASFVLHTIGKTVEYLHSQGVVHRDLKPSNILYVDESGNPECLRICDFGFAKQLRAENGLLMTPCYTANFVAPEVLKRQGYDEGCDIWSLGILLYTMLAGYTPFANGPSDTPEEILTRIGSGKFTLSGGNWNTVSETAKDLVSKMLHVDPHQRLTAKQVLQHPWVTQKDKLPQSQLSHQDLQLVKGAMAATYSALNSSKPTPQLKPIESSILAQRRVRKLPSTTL
Tyrosine-protein kinase JAK2, sequence (O60674 whole entry): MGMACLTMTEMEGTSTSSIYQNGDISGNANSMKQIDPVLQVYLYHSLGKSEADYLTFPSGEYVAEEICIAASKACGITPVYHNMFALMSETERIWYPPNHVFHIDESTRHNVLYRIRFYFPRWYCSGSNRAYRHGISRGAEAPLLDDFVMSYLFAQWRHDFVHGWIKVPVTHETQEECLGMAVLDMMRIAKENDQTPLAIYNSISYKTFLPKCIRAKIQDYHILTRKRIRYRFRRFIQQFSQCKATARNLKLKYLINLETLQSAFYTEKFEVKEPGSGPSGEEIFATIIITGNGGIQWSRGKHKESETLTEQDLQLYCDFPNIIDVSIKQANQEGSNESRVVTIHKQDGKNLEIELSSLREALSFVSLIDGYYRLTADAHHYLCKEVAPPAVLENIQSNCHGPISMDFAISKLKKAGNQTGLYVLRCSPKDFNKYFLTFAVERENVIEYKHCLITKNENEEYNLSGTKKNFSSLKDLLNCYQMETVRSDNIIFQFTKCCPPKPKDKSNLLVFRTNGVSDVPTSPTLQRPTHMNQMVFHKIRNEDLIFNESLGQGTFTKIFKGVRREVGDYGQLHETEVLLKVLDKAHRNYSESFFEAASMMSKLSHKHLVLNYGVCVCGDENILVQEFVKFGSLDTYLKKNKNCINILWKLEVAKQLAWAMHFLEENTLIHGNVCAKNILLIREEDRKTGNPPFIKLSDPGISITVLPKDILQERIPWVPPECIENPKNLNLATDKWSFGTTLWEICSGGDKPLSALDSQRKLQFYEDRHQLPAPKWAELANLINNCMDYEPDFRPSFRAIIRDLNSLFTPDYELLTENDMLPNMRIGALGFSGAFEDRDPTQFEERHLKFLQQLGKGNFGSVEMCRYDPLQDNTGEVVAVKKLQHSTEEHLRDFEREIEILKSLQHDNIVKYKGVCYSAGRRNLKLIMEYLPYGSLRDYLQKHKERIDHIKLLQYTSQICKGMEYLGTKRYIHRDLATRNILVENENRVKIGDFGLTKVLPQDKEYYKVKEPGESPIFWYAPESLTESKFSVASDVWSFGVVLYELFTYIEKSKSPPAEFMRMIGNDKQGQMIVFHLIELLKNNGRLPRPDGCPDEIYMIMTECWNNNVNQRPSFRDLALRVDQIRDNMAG
Mitogen-activated protein kinase 8, sequence (P45983 whole entry): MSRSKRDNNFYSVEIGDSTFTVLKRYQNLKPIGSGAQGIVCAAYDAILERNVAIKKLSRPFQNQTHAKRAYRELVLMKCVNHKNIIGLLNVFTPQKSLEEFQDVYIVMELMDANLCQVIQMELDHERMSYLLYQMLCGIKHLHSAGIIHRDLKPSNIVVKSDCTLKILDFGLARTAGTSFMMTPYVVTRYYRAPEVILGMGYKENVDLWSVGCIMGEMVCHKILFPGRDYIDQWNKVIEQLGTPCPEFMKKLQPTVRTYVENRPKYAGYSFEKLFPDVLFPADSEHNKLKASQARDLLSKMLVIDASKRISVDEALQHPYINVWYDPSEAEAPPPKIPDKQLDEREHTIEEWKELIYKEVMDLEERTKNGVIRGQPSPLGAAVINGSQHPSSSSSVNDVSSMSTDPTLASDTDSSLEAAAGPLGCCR
Cyclin-dependent kinase 16 (Homo sapiens), sequence (Q00536 whole entry): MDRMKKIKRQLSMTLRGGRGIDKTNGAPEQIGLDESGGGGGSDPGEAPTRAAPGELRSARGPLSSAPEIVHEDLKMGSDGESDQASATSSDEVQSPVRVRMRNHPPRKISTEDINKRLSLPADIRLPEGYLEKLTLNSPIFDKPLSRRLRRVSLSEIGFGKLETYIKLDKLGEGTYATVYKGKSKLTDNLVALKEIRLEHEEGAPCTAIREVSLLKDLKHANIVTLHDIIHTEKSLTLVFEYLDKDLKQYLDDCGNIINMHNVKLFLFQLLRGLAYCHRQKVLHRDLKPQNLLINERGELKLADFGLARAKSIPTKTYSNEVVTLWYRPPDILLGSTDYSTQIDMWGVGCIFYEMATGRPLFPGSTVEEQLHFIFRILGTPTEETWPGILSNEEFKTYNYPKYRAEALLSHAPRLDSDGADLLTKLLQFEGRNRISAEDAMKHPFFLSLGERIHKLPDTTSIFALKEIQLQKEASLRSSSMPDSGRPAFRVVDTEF
Calcium/calmodulin-dependent protein kinase kinase 2 (Homo sapiens), sequence (Q96RR4 2-588 limits assumed): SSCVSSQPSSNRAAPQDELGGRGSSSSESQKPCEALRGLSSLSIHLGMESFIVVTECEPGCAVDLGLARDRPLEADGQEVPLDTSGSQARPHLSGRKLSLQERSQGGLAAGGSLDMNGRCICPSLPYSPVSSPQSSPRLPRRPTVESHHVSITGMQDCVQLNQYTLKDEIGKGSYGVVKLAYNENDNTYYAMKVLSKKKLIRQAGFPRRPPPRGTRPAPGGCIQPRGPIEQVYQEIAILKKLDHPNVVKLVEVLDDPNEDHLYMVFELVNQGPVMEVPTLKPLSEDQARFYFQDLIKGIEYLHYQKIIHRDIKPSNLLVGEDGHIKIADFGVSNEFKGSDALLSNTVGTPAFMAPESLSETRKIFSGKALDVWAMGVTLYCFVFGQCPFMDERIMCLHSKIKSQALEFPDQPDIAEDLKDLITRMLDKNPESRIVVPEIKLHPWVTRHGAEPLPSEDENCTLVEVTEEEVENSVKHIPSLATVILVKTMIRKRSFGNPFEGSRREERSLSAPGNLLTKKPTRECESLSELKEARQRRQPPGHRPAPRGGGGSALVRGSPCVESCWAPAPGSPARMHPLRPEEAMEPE

Regarding `Cn1cc(-n2cnc3c(NCc4nc5cc(Cl)c(Cl)cc5[nH]4)nc(N4CCOCC4)nc32)cn1`, the % of inhibition in experiment [1] was -32.2%. Regarding `CNC(=O)Nc1ccc(-c2nc(N3CC4CCC(C3)O4)c3cnn(C4CCC5(CC4)OCCO5)c3n2)cc1`, in [2], the % of inhibition worked out at 2%. With `O=C(NOC[C@H](O)CO)c1ccc(F)c(F)c1Nc1ccc(I)cc1F`, in [3], the % of control was 83%.

Regarding `COc1cc(N(C)c2ccnc3ccc(C(F)(F)F)cc23)cc(OC)c1OC`, the % binding in experiment [4] worked out at 85%. For the compound `Nc1cnc(N2CCc3cc(S(=O)(=O)Nc4c(F)cc(Cl)cc4F)cc(N4CCCC4=O)c32)nc1` [TP-020n], the % of control in [5] amounted to 100%; in [6], 99%. With `N#Cc1cccc(-c2c[nH]c3ncnc(N4CCOCC4)c23)c1`, the % of control in experiment [7] stood at 100%. Turning to `CC[C@@H]1[C@H](F)C(=O)N[C@@H]1COc1nccc2cc(C(N)=O)c(OC)cc12` [ZIMLOVISERTIB], the % of inhibition in [8] was -42.6%; in [9], -0.8%; in experiment [10] (at 0.01 µM) it was -6.6%; in [10] (at 0.04 µM), 20.3%; in experiment [10] (at 0.2 µM), 53%; in [10] (at 1 µM) it was 77.8%. The results for the % of inhibition in experiment [10] (at 5 µM) and in experiment [11] were 94.8% and 9.2%, respectively. As to `CCN(CC)CCCCNc1ncc2cc(-c3cc(OC)cc(OC)c3)c(NC(=O)NC(C)(C)C)nc2n1`, the % of control in experiment [12] and in [13] was 100% throughout. For `Cc1cc(F)c(C(=O)Nc2cccc(-c3nncn3C(C)C)n2)cc1-n1cnc(C2CC2)c1`, the % of control in experiment [14] turned out to be 81%. Compound `CCC(=O)N1CCN(c2ccc(-n3c(=O)ccc4cnc5ccc(-c6cnc7ccccc7c6)cc5c43)cc2C(F)(F)F)CC1` displayed a % of control in experiment [15] of 30%.

Consider `C=CC(=O)Nc1cc(-n2c(=O)ccc3cnc4ccc(-c5ccc(NS(C)(=O)=O)cc5)cc4c32)ccc1C`, for which the figures for the % of control in [16] (at 1 µM) and in experiment [16] (at 10 µM) were 100% and 98%, respectively. As for `O[C@H]1CC[C@H](Nc2ncc3nc(Nc4c(F)cc(F)cc4F)n([C@H]4CCOC4)c3n2)CC1`, in experiment [17], the % of control is 100%.

The values above are taken from ChEMBL document CHEMBL5465560, “Selectivity Literature for EUbOPEN Chemogenomic Library” (2024).
